# From patent US20140288061A1, “INSECTICIDE COMPOSITIONS AND PROCESS” (priority 2004, published 2014)
# Tested on: German cockroaches
# Details: for LC50 (%) [95% CI]: 2 μl per insect, evaluated after 24 hours, alone or with 10% solution (ETCH) of Tomadol 23-1
# Description: Dose-response evaluations were performed on 1-4 week old adults SJC Strain (S.C. Johnson & Son, Racine, Wis.) German cockroaches, Blattella germanica, L. Insects were individually transferred using a 7″ (18 cm) […] forceps to 100×20 mm polystyrene Petri dishes. The inside edge of the dishes was lightly coated with a layer of (1:3) mineral oil+petroleum jelly to minimize insect escape. Approximately 10 cockroaches were transferred to each dish and then anesthetized with a 15-25 second exposure to CO2. Anesthetized cockroaches were positioned with their ventral side up in the bottom of the Petri dish. A 2 μl drop of test solution was applied to the area between the meso- and methathoracic legs using a Rainen L-10 10 μl pipette. Control cockroaches were treated with a 2 μl drop of the solvent, 100% ethyl alcohol.
# Structure—activity tests used to calculate LT50 values were scored approximately every 30 minutes for the first two hours following treatment followed by approximate hourly readings to hour 8 with a final reading at 24 hours. Cockroaches were scored as either alive (dorsal side up, active movement when abdomen prodded) or moribund/dead (dorsal side up and no movement when abdomen prodded or ventral side up and insect unable to right itself).
Compound,LC50 (%) [95% CI] [%],synergy of insecticidal activity by Tomadol 23-1 (reduced the LC50) (in words)
COP(=O)(NC(C)=O)SC (centres unmarked) [acephate],0.0051,did not synergize
CCOCn1c(-c2ccc(Cl)cc2)c(C#N)c(Br)c1C(F)(F)F [chlorfenapyr],0.4062,
CN/C(=N\[N+](=O)[O-])NCc1cnc(Cl)s1 [clothianidin],0.0020,
CC1(C)C(C=C(Cl)Cl)C1C(=O)OC(C#N)c1ccc(F)c(Oc2ccccc2)c1 (centres unmarked) [cyfluthrin],0.0050,
O=[N+]([O-])NC1=NCCN1Cc1ccc(Cl)nc1 [imidacloprid],0.0219,
CNC(=O)Oc1ccccc1OC(C)C [propoxur],0.0101,
CN1COCN(Cc2cnc(Cl)s2)/C1=N\[N+](=O)[O-] [thiamethoxam],0.0038,
